Source: ChEMBL document CHEMBL1201862, “PubChem BioAssay data set” (2004)
Calls of active or inactive are those of the source.

What was measured:
[1] = cytotoxicity toward DRD oncogenic fibroblasts, dose response, cell-based, non-viral oncogenic, luminescence (AID 1934); assay type: functional; conditions: Homo sapiens
Insulin-degrading enzyme [2] = target: T1, Insulin-degrading enzyme (Homo sapiens, UniProt P14735); assay: activators of recombinant IDE enzyme, dose response, counter-screen for IDE activator project, biochemical, fluorescence polarization (AID 588681)
T1 sequence (P14735 whole entry): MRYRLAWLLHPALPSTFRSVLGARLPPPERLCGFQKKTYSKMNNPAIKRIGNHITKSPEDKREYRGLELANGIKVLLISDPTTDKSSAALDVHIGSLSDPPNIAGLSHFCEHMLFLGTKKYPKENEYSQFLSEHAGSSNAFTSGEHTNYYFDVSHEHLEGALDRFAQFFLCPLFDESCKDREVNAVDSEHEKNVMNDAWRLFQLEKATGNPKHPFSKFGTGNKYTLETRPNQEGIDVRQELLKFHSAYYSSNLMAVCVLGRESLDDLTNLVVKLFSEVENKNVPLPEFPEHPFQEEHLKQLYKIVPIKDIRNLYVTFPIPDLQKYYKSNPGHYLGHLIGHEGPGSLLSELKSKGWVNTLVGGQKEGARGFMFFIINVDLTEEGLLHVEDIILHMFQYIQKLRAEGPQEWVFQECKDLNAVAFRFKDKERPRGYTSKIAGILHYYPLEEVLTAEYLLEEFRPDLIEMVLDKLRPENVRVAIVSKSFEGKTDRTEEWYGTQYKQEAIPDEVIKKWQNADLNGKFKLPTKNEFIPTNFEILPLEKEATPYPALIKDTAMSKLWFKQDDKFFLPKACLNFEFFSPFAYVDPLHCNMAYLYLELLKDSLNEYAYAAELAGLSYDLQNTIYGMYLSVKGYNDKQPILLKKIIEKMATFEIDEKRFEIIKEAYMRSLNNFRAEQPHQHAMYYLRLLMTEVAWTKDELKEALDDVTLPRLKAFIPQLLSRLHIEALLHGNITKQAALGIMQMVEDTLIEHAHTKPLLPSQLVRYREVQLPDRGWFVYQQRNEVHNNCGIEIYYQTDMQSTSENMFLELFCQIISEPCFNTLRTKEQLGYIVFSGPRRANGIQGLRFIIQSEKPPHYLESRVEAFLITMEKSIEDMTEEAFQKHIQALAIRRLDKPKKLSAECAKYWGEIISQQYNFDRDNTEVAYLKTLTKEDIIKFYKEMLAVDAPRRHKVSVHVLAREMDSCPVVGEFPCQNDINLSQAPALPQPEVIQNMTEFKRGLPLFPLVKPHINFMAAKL

BJ [3] = assay: cytotoxicity toward BJ-TERT fibroblasts, dose response, cell-based, RAS-independent, luminescence (AID 1933); assay type: functional; conditions: Homo sapiens
HEK293 [4] = assay: HEK cell cytotoxicity by LDH release, dose response, cytotoxicity control for IDE activator project, fluorescence, HEK cells (AID 588440); assay type: functional, cell-based; conditions: Homo sapiens;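 also: cytotoxicity by LDH release measuring loss of membrane integrity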
BJ [5] = assay: cytotoxicity toward BJ-TERT-LT-ST fibroblasts, dose response, cell-based, RAS-independent, luminescence (AID 1935); assay type: functional; conditions: Homo sapiens;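 also: BJ fibroblasts immortalized with TERT plus LT and ST oncogenes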
[6] = AlphaScreen signal interference compounds, dose response, artefact control for ARNT-TACC3 interaction inhibitor project, biochemical, luminescence, cherry-pick (AID 651705); assay type: functional;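 also: AlphaScreen bead proximity signal that flags compounds interfering with the detection technology; potency reflects signal decrease which marks the compound as an assay artifact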
Insulin-degrading enzyme [7] = target: T1, Insulin-degrading enzyme; assay: activators of endogenous IDE in HEK cells, dose response, cell-based, fluorescence polarization (AID 588439); assay type: functional
HEK293 [8] = assay: optical interference in Abeta FP readout, dose response, artefact control for IDE activator project, biochemical, fluorescence polarization (AID 588442); assay type: functional, cell-based; conditions: Homo sapiens
BJ [9] = assay: cells; assay type: functional, cell-based; conditions: Homo sapiens
[10] = target: COUP transcription factor 2 (Homo sapiens, UniProt P24468); assay: Luminescence-based cell-based high throughput dose response assay to identify inhibitors of COUP-TFII (NR2F2).; assay type: functional;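 also: HEK293 cells transiently cotransfected with COUP-TFII expression vector and reporter; luciferase reporter luminescence driven by COUP-TFII from the pX2-168 reporter plasmid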
Sequence of COUP transcription factor 2 (P24468 whole entry): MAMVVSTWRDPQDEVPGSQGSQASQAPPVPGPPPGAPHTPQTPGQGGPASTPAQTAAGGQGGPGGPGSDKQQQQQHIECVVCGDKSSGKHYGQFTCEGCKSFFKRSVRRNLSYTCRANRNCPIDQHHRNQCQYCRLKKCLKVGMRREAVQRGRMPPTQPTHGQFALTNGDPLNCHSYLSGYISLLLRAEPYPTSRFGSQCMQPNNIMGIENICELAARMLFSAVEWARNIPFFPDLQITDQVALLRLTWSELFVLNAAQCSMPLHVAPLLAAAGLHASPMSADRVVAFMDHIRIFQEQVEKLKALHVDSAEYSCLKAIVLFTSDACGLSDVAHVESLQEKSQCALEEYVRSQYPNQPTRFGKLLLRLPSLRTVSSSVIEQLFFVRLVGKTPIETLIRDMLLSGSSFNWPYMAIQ

[11] = Shn3 3'UTR reporter inhibitors, dose response, cell-based, Clone20 osteoblasts, firefly luciferase, cherry-picked (AID 624132); assay type: functional;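 also: firefly luciferase luminescence from reporter carrying the Shn3 3'UTR in osteoblasts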
[12] = HepG2 cell cytotoxicity, dose response, cytotoxicity control for Shn3 inhibitor project, CellTiter-Glo, cherry-picked (AID 624134); assay type: functional, cell-based
[13] = target: Latent membrane protein 1 (Human herpesvirus 4 (strain B95-8), UniProt P03230); assay: TES1-eGFP NF-kB reporter inhibition versus Tet-On dsRED, dose response, selectivity assay for LMP1 NF-kB inhibitor project, imaging, HEK293T, dual-color eGFP/dsRED, cherry-picks (AID 588398); assay type: functional, cell-based
Sequence of Latent membrane protein 1 (P03230 whole entry): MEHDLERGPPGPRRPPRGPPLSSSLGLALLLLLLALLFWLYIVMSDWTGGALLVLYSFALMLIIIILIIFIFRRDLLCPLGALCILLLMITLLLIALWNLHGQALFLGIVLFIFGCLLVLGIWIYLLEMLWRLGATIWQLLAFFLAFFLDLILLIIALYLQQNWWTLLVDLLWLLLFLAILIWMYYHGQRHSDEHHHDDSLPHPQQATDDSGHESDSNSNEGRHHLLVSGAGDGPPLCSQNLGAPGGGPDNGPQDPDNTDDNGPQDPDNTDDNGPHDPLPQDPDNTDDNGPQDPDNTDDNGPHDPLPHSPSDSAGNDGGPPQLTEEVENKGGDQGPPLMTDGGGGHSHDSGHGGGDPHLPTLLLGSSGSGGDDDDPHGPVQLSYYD

HEK293 [14] = assay: inhibitors of LMP1-driven NF-kB reporter, dose response, cell-based, HEK293, luciferase, cherry-pick (AID 588343); assay type: functional; conditions: Homo sapiens
[15] = control 3'UTR Renilla luciferase suppression, dose response, counter-screen for Shn3 inhibitor project, cell-based, Clone20-Shn3RL, cherry-picked (AID 624133); assay type: functional

Row | Structure (SMILES) | EC50 [1] | EC50 (Insulin-degrading enzyme [2]) | EC50 (BJ [3]) | IC50 (HEK293 [4]) | EC50 (BJ [5]) | AC50 [6] | EC50 (Insulin-degrading enzyme [7]) | EC50 (HEK293 [8]) | EC50 (BJ [9]) | IC50 [10] | AC50 [11] | AC50 [12] | AC50 [13] | AC50 (HEK293 [14]) | AC50 [15]
1 | CCN(CC)c1ccc(/C=N/N=C(N)N)c(O)c1 | 1.19 µM (active) | > 54.7 µM (inactive) | 1.47 µM (active) | > 89.2 µM (inactive) | 1.51 µM (inconclusive) | 115 µM (active) | > 54.7 µM (inactive) | > 54.7 µM (inactive) | 2.16 µM (active) | – | – | – | – | – | –
2 | O=C(NC1CCCCCCC1)c1cc(COc2ccc3ncccc3c2)on1 | – | – | – | – | – | – | – | – | – | 4.41 µM (active) | 1.06 µM (active) | 2.97 µM (active) | 60.1 µM (active) | 39.6 µM (active) | 11.8 µM (active)
